Source: ChEMBL document CHEMBL3507680, “University of Dundee, Gates Library screen for HepG2 cell viability”

Experiment: Human HepG2 cell viability assay in 384 well format
Format: toxicity, cell-based
Set-up: dose 125 nL, time 70.5 hour; cytotoxicity at 70.5 h: concentration not given beside the values
Details: HepG2 cells, read-out: Inhibition

SMILES	cytotoxicity at 70.5 h [%]
CCCN(Cc1ccccn1)Cc1ccccc1OC	-6.2
CC(=O)c1ccc(N2CCCC(CO)(CCc3ccccc3)C2)nc1 (centres undefined)	-1.42
NC(=O)CN1CCC(C(=O)NCc2ccc3c(c2)OCCCO3)CC1	-8.05
CC1(C)CN(S(=O)(=O)N2CCOCC2)CC1c1ccccc1 (centres undefined)	1.45
Cc1cc(C)nc(NCc2cc3n(n2)CCCN(C(=O)C2CCC2)C3)n1	-1.4
COc1ncc(-c2nccn2-c2ccccc2CN2CCOCC2)cn1	-7.32
CN1CCC(N2CCC(CN(Cc3ccncc3)C3CCC3)CC2)CC1	-4.29
Cc1cccc(C(Nc2nccc(C)n2)C2CC2)n1 (centres undefined)	-4.46
CC(C)c1cc(NCc2csc(N(C)C)n2)nc(N)n1	17.1
Cc1ccccc1N1CCCN(C(=O)CCCn2ccnc2C)CC1	-12.2
Cc1nc(CN2CCCCC2CCc2cccs2)co1 (centres undefined)	-9.07
COc1ccc2c(c1)OCC(Cc1cc(N3CCCC3)cnn1)C2 (centres undefined)	1.96
COc1ccc(-n2cccn2)c(CN2CCC3(CCCN(C)C3=O)C2)c1 (centres undefined)	-9.91
CCn1ncnc1CN1CCC(CNC(=O)c2ccccc2C#N)C1 (centres undefined)	0.027
O=C(Nc1ccccc1)c1cccc(S(=O)(=O)NC[C@@H]2C[C@H](F)CN2)c1	6.01
NC(=O)c1noc(Cn2ncc3ccccc3c2=O)n1	12.9
Cc1ccc2c(c1)c(CNC(C)Cn1ccnc1)nn2C (centres undefined)	-5.3
O=S(=O)(CCNCc1cc(O)c2cc(F)ccc2n1)N1CCCC1	17.6
CCN(CCO)C[C@@H]1CN(c2cccc(C(F)(F)F)n2)C[C@@H]1CO	-11.5
COCCCN1CCCC2(CCN(S(=O)(=O)c3cccnc3)C2)C1=O (centres undefined)	9.1
CC(NS(C)(=O)=O)C(=O)N(C)Cc1csc(-c2cccs2)n1 (centres undefined)	-13.4
CN1C(=O)C2(CCN(C(=O)c3ccccc3)CC2)c2cc(F)ccc21	-7.93
CN1CCC2(CC1)C(=O)N(C)c1ccc(F)cc12	27.9
Cn1cnc2c(-c3cccnc3)nc(C3CCNCC3)cc21	15.6
CNC(=O)c1cc2c(nc1N(C)C)CCN(c1ncc(F)cn1)CC2	-13.5
COc1ccc(S(=O)(=O)N2CCN(C)c3ncccc3C2)cc1	-5.97
COCCN1CCC12CCN(C(=O)c1ccc(C)nc1)C2 (centres undefined)	-16.4

SMILES	cytotoxicity at 70.5 h [%]
CCOCc1nnc2n1CCN(Cc1c(C)noc1C)CC2	16.5
Cc1cnc(N2CC3(CCN(S(=O)(=O)C4CC4)C3)C2)nc1	-11.5
Fc1cccc(-c2nnn3c2COCC(CNCc2nccs2)C3)c1 (centres undefined)	-11.8
Cc1nc(CO[C@H]2CN(C(=O)c3cccn3C)[C@@H]3COC[C@H]23)cs1	-11.5
CCN(C(=O)c1ccc2nnc(C3CCN(CCOC)C3)n2c1)C(C)C (centres undefined)	-13.6
Cn1ccc(C(=O)N2C[C@@H]3CCN(c4cccnc4)C[C@@H]3C2)n1	-4.89
O=C([C@H]1COC[C@H]2CN(C3CCOCC3)C[C@H]21)N1CCC(F)CC1	-8.13
c1csc(CNCC2COCc3c(-c4ccoc4)nnn3C2)n1 (centres undefined)	-8.83
O=C([C@@H]1CC[C@@H]2[C@@H](CCN2CCOCc2ccccc2)O1)N1CCCC1	13
COC[C@@]12CCO[C@@H]1CCN(Cc1sccc1C)C2	-10.6
O=C(c1cnccn1)N1C[C@@H]2CCN(c3cnccn3)C[C@@H]2C1	-7.66
Cc1ccsc1C(=O)N1CCc2ncc(CN(C)C)n2CC1	-7.39
Cc1cc(C(=O)N2CCc3ncc(CN4CCCC4)n3CC2)no1	-11
O=C(c1cscn1)N1CCc2ncc(CN3CCCC3)n2CC1	-8.65
COC1CCC[C@@H]2CN(Cc3csc(C)n3)C[C@H]12 (some centres undefined)	-4.08
Cn1ccnc1C(=O)NC[C@@H]1OC[C@H]2CN(CC3CC3)CC[C@H]21	-9.31
CN(C)C(=O)COC1COC2(CCN(CC3CC3)CC2)C1 (centres undefined)	-5.8
O=C(Nc1ccccc1)c1ccc2c(c1)C1(CCCCC1)CN2	-2.11
Cc1cccc(CN2CC[C@@H]3[C@@H]2CCN3C(=O)Cc2cccs2)n1	-11.7
Cc1ccc(CN2CCn3c(COc4cccnc4)cnc3C2C)o1 (centres undefined)	-7.88
Cc1ccsc1CN1CCn2c(COc3cccnc3)cnc2C1C (centres undefined)	-9.93
CC1c2ncc(COc3cccnc3)n2CCN1Cc1cnn(C)c1 (centres undefined)	-9.85
O=C(NCCc1cccs1)[C@]12COC[C@H]1CN(Cc1ccncc1)C2	-9.54
c1ccc(CN2CCC3(CC2)CC(Oc2cccnc2)C3)nc1	-12.3
COCCN1C[C@H]2CCC[C@@H](CNc3ncccn3)[C@H]2C1	-10.7
Cc1ccc(CN2CC[C@H]3CO[C@H](CN4CCN(C)CC4)[C@H]3C2)o1	-7.33
CCCN1CCC(c2nc3ccc(NCc4cccnc4)cn3n2)CC1	-10.3
